Our source for the inhibition values is patent US8546381B2, “Bridged heterocyclic compounds and methods of use” (Medivation Technologies, Inc., priority 2008, dated 2013).

The term inhibition denotes the drop in the measured response relative to a control, in per cent.

The target of assay [1] is T1, human recombinant adrenergic α2B receptor (Homo sapiens, UniProt P18089).
T1 construct: expressed in transfected cells; host or cells: CHO-K1 cells
T1 sequence (P18089 1-450): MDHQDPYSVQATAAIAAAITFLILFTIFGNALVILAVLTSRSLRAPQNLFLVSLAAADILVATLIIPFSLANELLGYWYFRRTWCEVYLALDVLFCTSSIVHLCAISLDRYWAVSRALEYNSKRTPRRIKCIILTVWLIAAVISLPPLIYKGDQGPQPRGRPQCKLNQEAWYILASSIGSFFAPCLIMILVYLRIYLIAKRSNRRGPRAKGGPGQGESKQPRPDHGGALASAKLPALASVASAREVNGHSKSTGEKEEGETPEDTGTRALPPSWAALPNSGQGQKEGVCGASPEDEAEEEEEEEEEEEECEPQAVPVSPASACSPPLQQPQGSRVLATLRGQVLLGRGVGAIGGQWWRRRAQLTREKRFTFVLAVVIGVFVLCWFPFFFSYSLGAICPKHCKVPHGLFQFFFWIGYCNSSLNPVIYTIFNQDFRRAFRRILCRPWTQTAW
The experiment in a line: Adrenergic α2B radioligand binding ([3H]Rauwolscine). Conditions: 1 μM; read-out: Adrenergic α2B, inhibition of ligand binding (1 μM).

The target of assay [2] is T2, human recombinant histamine H1 receptor (Homo sapiens, UniProt P35367).
T2 construct: expressed in transfected cells; host or cells: CHO cells
T2 sequence (P35367 whole entry): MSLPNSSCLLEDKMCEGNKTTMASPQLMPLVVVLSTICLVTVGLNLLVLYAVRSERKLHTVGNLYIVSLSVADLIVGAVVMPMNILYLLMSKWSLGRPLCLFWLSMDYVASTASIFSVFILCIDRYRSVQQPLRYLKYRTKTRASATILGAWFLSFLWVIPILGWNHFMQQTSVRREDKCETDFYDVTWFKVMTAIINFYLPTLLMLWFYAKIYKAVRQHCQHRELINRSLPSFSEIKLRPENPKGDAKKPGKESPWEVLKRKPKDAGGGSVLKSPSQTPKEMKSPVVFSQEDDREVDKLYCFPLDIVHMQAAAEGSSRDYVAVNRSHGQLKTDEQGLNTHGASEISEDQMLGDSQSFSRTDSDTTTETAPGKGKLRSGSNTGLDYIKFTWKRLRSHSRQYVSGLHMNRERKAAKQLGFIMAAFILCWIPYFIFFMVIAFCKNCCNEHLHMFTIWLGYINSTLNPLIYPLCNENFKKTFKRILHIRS
The experiment in a line: Histamine H1 radioligand binding ([3H]Pyrilamine). Conditions: compound at 1 μM; inhibition of specific [3H]Pyrilamine binding; read-out: Histamine Binding (1 μM) H1, Percentage Inhibition. An outline of the steps:
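Membranes from CHO cells expressing human H1 receptor were incubated with 1.2 nM [3H]pyrilamine for 180 min at 25° C in Tris-HCl buffer pH 7.4. Non-specific binding defined with 1 μM pyrilamine; compounds tested at 1 μM or lower in 1% DMSO. Results are given as % inhibition of specific binding.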

For assay [3], the target named is T3, human recombinant histamine H2 receptor (Homo sapiens, UniProt P25021).
T3 construct: expressed in transfected cells; host or cells: CHO-K1 cells
T3 sequence (P25021 whole entry): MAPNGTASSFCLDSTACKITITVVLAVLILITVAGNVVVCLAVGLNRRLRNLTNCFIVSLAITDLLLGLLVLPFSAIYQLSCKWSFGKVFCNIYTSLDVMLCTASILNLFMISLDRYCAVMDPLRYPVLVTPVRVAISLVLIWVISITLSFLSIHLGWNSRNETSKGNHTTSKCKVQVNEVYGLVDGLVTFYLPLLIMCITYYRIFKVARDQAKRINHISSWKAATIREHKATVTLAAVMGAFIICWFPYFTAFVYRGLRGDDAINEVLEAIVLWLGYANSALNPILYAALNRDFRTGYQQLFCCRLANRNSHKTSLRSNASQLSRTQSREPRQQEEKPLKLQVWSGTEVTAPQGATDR
The experiment in a line: Histamine H2 radioligand binding ([125I]Aminopotentidine). Conditions: compound at 1 μM; inhibition of specific [125I]Aminopotentidine binding; read-out: Histamine Binding (1 μM) H2, Percentage Inhibition. An outline of the steps: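 CHO-K1 membranes expressing the receptor were incubated in 50 mM phosphate buffer, pH 7.4, with 0.1 nM [125I]aminopotentidine for 120 min at 25°C; 3 μM tiotidine defined non-specific binding.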

Assay [4] has as its target T4, human recombinant adrenergic α1D receptor (Homo sapiens, UniProt P25100).
T4 construct: expressed in transfected cells; host or cells: HEK-293 cells
T4 sequence (P25100 1-572): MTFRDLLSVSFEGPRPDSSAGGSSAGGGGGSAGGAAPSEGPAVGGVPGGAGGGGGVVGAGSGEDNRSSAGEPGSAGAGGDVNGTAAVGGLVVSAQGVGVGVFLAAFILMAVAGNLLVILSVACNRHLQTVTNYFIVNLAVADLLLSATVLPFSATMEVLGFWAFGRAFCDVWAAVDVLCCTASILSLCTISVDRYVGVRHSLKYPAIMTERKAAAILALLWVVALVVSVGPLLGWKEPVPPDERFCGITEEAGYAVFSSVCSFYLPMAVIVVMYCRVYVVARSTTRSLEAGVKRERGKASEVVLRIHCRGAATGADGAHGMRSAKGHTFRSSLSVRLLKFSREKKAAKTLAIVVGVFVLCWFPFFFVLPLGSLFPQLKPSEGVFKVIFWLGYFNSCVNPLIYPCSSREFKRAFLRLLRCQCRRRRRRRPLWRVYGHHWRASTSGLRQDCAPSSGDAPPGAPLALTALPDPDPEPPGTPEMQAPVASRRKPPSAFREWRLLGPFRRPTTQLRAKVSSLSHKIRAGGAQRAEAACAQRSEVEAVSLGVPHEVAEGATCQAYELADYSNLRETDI
The experiment in a line: Adrenergic α1D radioligand binding ([3H]Prozosin). Conditions: 1 μM; read-out: Adrenergic α1D, inhibition of ligand binding (1 μM). The gist of the method: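 Membranes of HEK-293 cells expressing human α1D in 50 mM Tris-HCl pH 7.4, incubated 60 min at 25 °C with 0.6 nM [3H]prazosin; nonspecific binding with 10 μM phentolamine.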

With `Cc1ccc(CCn2c3c(c4ccccc42)[C@@H]2CC[C@H](C3)N2C)cn1` [Compound 102], the inhibition at 1 µM was 42% in assay [1], 52% in assay [2], 3% in assay [3] and 1% in assay [4].
On the same counts, the results for `Cc1ccc2c(c1)c1c(n2C(=O)Cc2ccc(Cl)cc2)CC2CCC1N2C` (stereo not drawn) [Compound 162] are 83%, 0%, 47% and 34%.
For `Cc1ccc(C#Cn2c3c(c4cc(Cl)ccc42)C2CCC(C3)N2C)cn1` (stereo not drawn) [Compound 139], the inhibition at 1 µM in assay [1] stood at 115%; in assay [2], 57%; in assay [3], 34%; in assay [4] it was 65%.
The matching figures for `CC(=O)N1CCN(C(=O)CCn2c3c(c4cc(Cl)ccc42)C2CCC(C3)N2C)CC1` (stereo not drawn) [Compound 8]: -9%, 16%, 9% and 8%.
Consider `Cc1ccc2c(c1)c1c(n2CCc2nc(-c3ccccc3)cs2)CC2CCC1N2C` (stereo not drawn) [Compound 114], for which the inhibition at 1 µM in assay [1] is 107%; in assay [2] it was 93%; in assay [3], 10%; in assay [4] it was 68%.
The matching figures for `CN1C2CCC1c1c(n(CC(=O)c3ccc(Cl)cc3)c3ccc(Cl)cc13)C2` (stereo not drawn) [Compound 111]: 96%, 66%, 33% and 40%.
As for `C/C(=C\n1c2c(c3cc(C)ccc31)C1CCC(C2)N1C)c1ccc(Cl)cc1` (stereo not drawn) [Compound 116], the inhibition at 1 µM in assay [1] worked out at 95%; in assay [2] it was 23%; in assay [3], 81%; in assay [4] it was 40%.
On the same counts, the results for `CN1[C@@H]2CC[C@H]1c1c(n(CCc3ccc(C(F)(F)F)nc3)c3ccccc13)C2` [Compound 97] are 103%, 26%, 11% and 19%.
Consider `COc1ccc(C(C)(O)Cn2c3c(c4cc(C)ccc42)C2CCC(C3)N2C)cc1F` (stereo not drawn) [Compound 161], for which the inhibition at 1 µM in assay [1] is 95%; in assay [2], 84%; in assay [3], 20%; in assay [4], 30%.
